# Tests used:
# [1] = system: Entercoccus faecalis 2041; test: MIC, standard broth micro-dilution assay; type: cell-based
# Description: (§1) The formula I compounds have in vitro and in vivo activity against Gram-positive pathogenic bacteria. The MIC's were determined using a standard broth micro-dilution assay.
# [2] = system: Entercoccus gallinarum 245; test: MIC, standard broth micro-dilution assay; type: cell-based
# Description: as §1
SMILES,MIC [1],MIC [2]
"CCCCCC1CCC(c2ccc(CNC3(C)CC(OC4C(Oc5c6cc7cc5Oc5ccc(cc5Cl)C(OC5CC(C)(N)C(O)C(C)O5)C5NC(=O)C(NC(=O)C7NC(=O)C(CC(N)=O)NC(=O)C(NC(=O)C(CC(C)C)NC)C(O)c7ccc(c(Cl)c7)O6)c6ccc(O)c(c6)-c6c(O)cc(O)cc6C(C(=O)O)NC5=O)OC(CO)C(O)C4O)OC(C)C3O)cc2)CC1 (centres unmarked) [Compound 34, 4-[4-pentylcyclohexyl]benzyl]",8 µg/mL,4 µg/mL
"CNC(CC(C)C)C(=O)NC1C(=O)NC(CC(N)=O)C(=O)NC2C(=O)NC3C(=O)NC(C(=O)NC(C(=O)O)c4cc(O)cc(O)c4-c4cc3ccc4O)C(OC3CC(C)(N)C(O)C(C)O3)c3ccc(c(Cl)c3)Oc3cc2cc(c3OC2OC(CO)C(O)C(O)C2OC2CC(C)(NCc3cncc(-c4ccccc4)c3)C(O)C(C)O2)Oc2ccc(cc2Cl)C1O (centres unmarked) [Compound 101, 3-[5-phenyl]pyridinylmethyl]",≤ 0.06 µg/mL,8 µg/mL
"CCN(CC)CCOc1ccc(CNC2(C)CC(OC3C(Oc4c5cc6cc4Oc4ccc(cc4Cl)C(OC4CC(C)(N)C(O)C(C)O4)C4NC(=O)C(NC(=O)C6NC(=O)C(CC(N)=O)NC(=O)C(NC(=O)C(CC(C)C)NC)C(O)c6ccc(c(Cl)c6)O5)c5ccc(O)c(c5)-c5c(O)cc(O)cc5C(C(=O)O)NC4=O)OC(CO)C(O)C3O)OC(C)C2O)cc1 (centres unmarked) [Compound 83, 4-[2-[N,N-diethylamino]ethoxy]benzyl]",0.5 µg/mL,0.5 µg/mL
"CNC(CC(C)C)C(=O)NC1C(=O)NC(CC(N)=O)C(=O)NC2C(=O)NC3C(=O)NC(C(=O)NC(C(=O)O)c4cc(O)cc(O)c4-c4cc3ccc4O)C(OC3CC(C)(N)C(O)C(C)O3)c3ccc(c(Cl)c3)Oc3cc2cc(c3OC2OC(CO)C(O)C(O)C2OC2CC(C)(NCc3ccc(CCc4ccccc4)cc3)C(O)C(C)O2)Oc2ccc(cc2Cl)C1O (centres unmarked) [Compound 100, 4-[(2-phenyl)ethyl]benzyl]",≤ 0.06 µg/mL,2 µg/mL
"CNC(CC(C)C)C(=O)NC1C(=O)NC(CC(N)=O)C(=O)NC2C(=O)NC3C(=O)NC(C(=O)NC(C(=O)O)c4cc(O)cc(O)c4-c4cc3ccc4O)C(OC3CC(C)(N)C(O)C(C)O3)c3ccc(c(Cl)c3)Oc3cc2cc(c3OC2OC(CO)C(O)C(O)C2OC2CC(C)(NCc3ccc(OC(C)=O)c(OC)c3)C(O)C(C)O2)Oc2ccc(cc2Cl)C1O (centres unmarked) [Compound 99, 4-acetoxy-3-methoxybenzyl]",–,32 µg/mL
CCCCCCCCc1ccc(-c2ccc(CNC3(C)CC(OC4C(Oc5c6cc7cc5Oc5ccc(cc5Cl)C(OC5CC(C)(N)C(O)C(C)O5)C5NC(=O)C(NC(=O)C7NC(=O)C(CC(N)=O)NC(=O)C(NC(=O)C(CC(C)C)NC)C(O)c7ccc(c(Cl)c7)O6)c6ccc(O)c(c6)-c6c(O)cc(O)cc6C(C(=O)O)NC5=O)OC(CO)C(O)C4O)OC(C)C3O)cc2)cc1 (centres unmarked) [Compound 21],–,8 µg/mL
"CN[C@H](CC(C)C)C(=O)N[C@H]1C(=O)N[C@@H](CC(N)=O)C(=O)N[C@H]2C(=O)N[C@H]3C(=O)N[C@H](C(=O)N[C@H](C(=O)O)c4cc(O)cc(O)c4-c4cc3ccc4O)[C@H](O[C@H]3C[C@](C)(N)[C@@H](O)[C@H](C)O3)c3ccc(c(Cl)c3)Oc3cc2cc(c3O[C@@H]2O[C@H](CO)[C@@H](O)[C@H](O)[C@H]2O[C@H]2C[C@](C)(NCc3ccc(-c4cccc(F)c4)cc3)[C@@H](O)[C@H](C)O2)Oc2ccc(cc2Cl)[C@H]1O [Compound 92, 4-[3-fluorophenyl]benzyl]",–,2 µg/mL
"CNC(CC(C)C)C(=O)NC1C(=O)NC(CC(N)=O)C(=O)NC2C(=O)NC3C(=O)NC(C(=O)NC(C(=O)O)c4cc(O)cc(O)c4-c4cc3ccc4O)C(OC3CC(C)(N)C(O)C(C)O3)c3ccc(c(Cl)c3)Oc3cc2cc(c3OC2OC(CO)C(O)C(O)C2OC2CC(C)(NCc3ccc([N+](=O)[O-])cc3)C(O)C(C)O2)Oc2ccc(cc2Cl)C1O (centres unmarked) [Compound 78, 4-nitrobenzyl]",≤ 0.06 µg/mL,–
"CCOc1cc(CNC2(C)CC(OC3C(Oc4c5cc6cc4Oc4ccc(cc4Cl)C(OC4CC(C)(N)C(O)C(C)O4)C4NC(=O)C(NC(=O)C6NC(=O)C(CC(N)=O)NC(=O)C(NC(=O)C(CC(C)C)NC)C(O)c6ccc(c(Cl)c6)O5)c5ccc(O)c(c5)-c5c(O)cc(O)cc5C(C(=O)O)NC4=O)OC(CO)C(O)C3O)OC(C)C2O)ccc1OCC1CCCCC1 (centres unmarked) [Compound 105, 4-[cyclohexylmethoxy]-3-ethoxybenzyl]",–,1 µg/mL
"CNC(CC(C)C)C(=O)NC1C(=O)NC(CC(N)=O)C(=O)NC2C(=O)NC3C(=O)NC(C(=O)NC(C(=O)O)c4cc(O)cc(O)c4-c4cc3ccc4O)C(OC3CC(C)(N)C(O)C(C)O3)c3ccc(c(Cl)c3)Oc3cc2cc(c3OC2OC(CO)C(O)C(O)C2OC2CC(C)(NCc3ccc(-c4ccc(O)cc4)cc3)C(O)C(C)O2)Oc2ccc(cc2Cl)C1O (centres unmarked) [Compound 20, 4-[4-hydroxyphenyl]benzyl]",≤ 0.06 µg/mL,–
CNC(CC(C)C)C(=O)NC1C(=O)NC(CC(N)=O)C(=O)NC2C(=O)NC3C(=O)NC(C(=O)NC(C(=O)O)c4cc(O)cc(O)c4-c4cc3ccc4O)C(OC3CC(C)(N)C(O)C(C)O3)c3ccc(c(Cl)c3)Oc3cc2cc(c3OC2OC(CO)C(O)C(O)C2OC2CC(C)(NCc3c(C)c(C)c(C)c(C)c3C)C(O)C(C)O2)Oc2ccc(cc2Cl)C1O (centres unmarked) [Compound 73],–,2 µg/mL

# Other lines, results leading:
MIC [1],MIC [2],SMILES
≤ 0.06 µg/mL,2 µg/mL,"CNC(CC(C)C)C(=O)NC1C(=O)NC(CC(N)=O)C(=O)NC2C(=O)NC3C(=O)NC(C(=O)NC(C(=O)O)c4cc(O)cc(O)c4-c4cc3ccc4O)C(OC3CC(C)(N)C(O)C(C)O3)c3ccc(c(Cl)c3)Oc3cc2cc(c3OC2OC(CO)C(O)C(O)C2OC2CC(C)(NCc3ccc(OCc4ccc([N+](=O)[O-])cc4)cc3)C(O)C(C)O2)Oc2ccc(cc2Cl)C1O (centres unmarked) [Compound 131, 4-[4-nitrobenzyloxy]benzyl]"
≤ 0.06 µg/mL,1 µg/mL,CNC(CC(C)C)C(=O)NC1C(=O)NC(CC(N)=O)C(=O)NC2C(=O)NC3C(=O)NC(C(=O)NC(C(=O)O)c4cc(O)cc(O)c4-c4cc3ccc4O)C(OC3CC(C)(N)C(O)C(C)O3)c3ccc(c(Cl)c3)Oc3cc2cc(c3OC2OC(CO)C(O)C(O)C2OC2CC(C)(NCC3CCC(COCc4ccccc4)CC3)C(O)C(C)O2)Oc2ccc(cc2Cl)C1O (centres unmarked) [Compound 239]
≤ 0.06 µg/mL,0.5 µg/mL,CNC(CC(C)C)C(=O)NC1C(=O)NC(CC(N)=O)C(=O)NC2C(=O)NC3C(=O)NC(C(=O)NC(C(=O)O)c4cc(O)cc(O)c4-c4cc3ccc4O)C(OC3CC(C)(N)C(O)C(C)O3)c3ccc(c(Cl)c3)Oc3cc2cc(c3OC2OC(CO)C(O)C(O)C2OC2CC(C)(NCc3ccc4c(c3)CCc3ccccc3-4)C(O)C(C)O2)Oc2ccc(cc2Cl)C1O (centres unmarked) [Compound 220]
≤ 0.06 µg/mL,2 µg/mL,"CNC(CC(C)C)C(=O)NC1C(=O)NC(CC(N)=O)C(=O)NC2C(=O)NC3C(=O)NC(C(=O)NC(C(=O)O)c4cc(O)cc(O)c4-c4cc3ccc4O)C(OC3CC(C)(N)C(O)C(C)O3)c3ccc(c(Cl)c3)Oc3cc2cc(c3OC2OC(CO)C(O)C(O)C2OC2CC(C)(NCCCC3CCCC3)C(O)C(C)O2)Oc2ccc(cc2Cl)C1O (centres unmarked) [Compound 208, 3-[cyclopentyl]propyl]"
≤ 0.06 µg/mL,1 µg/mL,"C=CCCCOc1ccc(CNC2(C)CC(OC3C(Oc4c5cc6cc4Oc4ccc(cc4Cl)C(OC4CC(C)(N)C(O)C(C)O4)C4NC(=O)C(NC(=O)C6NC(=O)C(CC(N)=O)NC(=O)C(NC(=O)C(CC(C)C)NC)C(O)c6ccc(c(Cl)c6)O5)c5ccc(O)c(c5)-c5c(O)cc(O)cc5C(C(=O)O)NC4=O)OC(CO)C(O)C3O)OC(C)C2O)cc1 (centres unmarked) [Compound 226, 4-[4-pentenyloxy]benzyl]"
–,4 µg/mL,"CNC(CC(C)C)C(=O)NC1C(=O)NC(CC(N)=O)C(=O)NC2C(=O)NC3C(=O)NC(C(=O)NC(C(=O)O)c4cc(O)cc(O)c4-c4cc3ccc4O)C(OC3CC(C)(N)C(O)C(C)O3)c3ccc(c(Cl)c3)Oc3cc2cc(c3OC2OC(CO)C(O)C(O)C2OC2CC(C)(NCc3ccc(-c4ccc(C)cc4)c(C)c3)C(O)C(C)O2)Oc2ccc(cc2Cl)C1O (centres unmarked) [Compound 225, 4-[4-methylphenyl]-3-methylbenzyl]"
≤ 0.06 µg/mL,0.5 µg/mL,"CNC(CC(C)C)C(=O)NC1C(=O)NC(CC(N)=O)C(=O)NC2C(=O)NC3C(=O)NC(C(=O)NC(C(=O)O)c4cc(O)cc(O)c4-c4cc3ccc4O)C(OC3CC(C)(N)C(O)C(C)O3)c3ccc(cc3)Oc3cc2cc(c3OC2OC(CO)C(O)C(O)C2OC2CC(C)(NCc3ccc(-c4ccccc4)cc3)C(O)C(C)O2)Oc2ccc(cc2)C1O (centres unmarked) [Compound 183, 4-phenylbenzyl]"
≤ 0.06 µg/mL,–,"CNC(CC(C)C)C(=O)NC1C(=O)NC(CC(N)=O)C(=O)NC2C(=O)NC3C(=O)NC(C(=O)NC(C(=O)O)c4cc(O)cc(O)c4-c4cc3ccc4O)C(OC3CC(C)(N)C(O)C(C)O3)c3ccc(c(Cl)c3)Oc3cc2cc(c3OC2OC(CO)C(O)C(O)C2OC2CC(C)(NCc3ccc(N4CCC(C)CC4)cc3)C(O)C(C)O2)Oc2ccc(cc2Cl)C1O (centres unmarked) [Compound 129, 4-[4-methyl-1-piperidino]benzyl]"
–,8 µg/mL,"CNC(CC(C)C)C(=O)NC1C(=O)NC(CC(N)=O)C(=O)NC2C(=O)NC3C(=O)NC(C(=O)NC(C(=O)O)c4cc(O)cc(O)c4-c4cc3ccc4O)C(OC3CC(C)(N)C(O)C(C)O3)c3ccc(c(Cl)c3)Oc3cc2cc(c3OC2OC(CO)C(O)C(O)C2OC2CC(C)(NCc3ccc([S+]([O-])c4ccccc4)cc3)C(O)C(C)O2)Oc2ccc(cc2Cl)C1O (centres unmarked) [Compound 159, 4-[phenylsulfinyl]benzyl]"
≤ 0.06 µg/mL,–,"CNC(CC(C)C)C(=O)NC1C(=O)NC(CC(N)=O)C(=O)NC2C(=O)NC3C(=O)NC(C(=O)NC(C(=O)O)c4cc(O)cc(O)c4-c4cc3ccc4O)C(OC3CC(C)(N)C(O)C(C)O3)c3ccc(c(Cl)c3)Oc3cc2cc(c3OC2OC(CO)C(O)C(O)C2OC2CC(C)(NCc3ccc(N4CCOCC4)cc3)C(O)C(C)O2)Oc2ccc(cc2Cl)C1O (centres unmarked) [Compound 147, 4-morpholinobenzyl]"
–,16 µg/mL,"CNC(CC(C)C)C(=O)NC1C(=O)NC(CC(N)=O)C(=O)NC2C(=O)NC3C(=O)NC(C(=O)NC(C(=O)O)c4cc(O)cc(O)c4-c4cc3ccc4O)C(OC3CC(C)(N)C(O)C(C)O3)c3ccc(c(Cl)c3)Oc3cc2cc(c3OC2OC(CO)C(O)C(O)C2OC2CC(C)(NCc3ccc(OCC(O)CO)cc3)C(O)C(C)O2)Oc2ccc(cc2Cl)C1O (centres unmarked) [Compound 177, 4-[2,3-dihydroxypropoxy]benzyl]"

# — patent US5843889A, “Glycopeptide antibiotic derivatives” (Eli Lilly and Company, priority 1997, dated 1998)
